# Test results reported in patent US4454290A, “Stevioside analogs” (Dynapol, priority 1981, dated 1984).
# Structures can show the parent of a compound that is named as a salt.
# Columns and labels:
# ATP synthetase = conditions: in cell mitochondria; Vignais 1966; cited from earlier work
# [1] = Dorfman et al.; cited from earlier work
# [2] = likelihood suggested by Wingard et al., 1980; cited from earlier work
# [3] = Taste test by a group of volunteers / sensory comparison; type: in vivo; conditions: for Ip, sample intensity relative to 10% sucrose: mean value(2 Sm), 12 judgements, stevioside 500 ppm, Example 1 534 ppm, saccharin 330 ppm
# [4] = as above; type: in vivo; conditions: for Pm, potency compared to sucrose = 1, molar basis / Pw, potency compared to sucrose = 1, weight basis / Taste Character, Bitter / Taste Character, Other / Taste Character, Salty / Taste Character, Sour / Taste Character, Sweet / Taste Character, Sweet/bitter, other: 12 judgements, stevioside 500 ppm, Example 1 534 ppm, saccharin 330 ppm; for taste of the material: concentration not given
# Description: Steviolbioside, 3-sulfopropyl ester, potassium salt prepared in Part B. was dissolved in distilled water at a concentration of 0.2 wt% and tasted by a group of volunteers. […] The solution was diluted to 0.0534 wt% and retasted.
# [5] = Bridel et al., cited from earlier work
# [6] = Wingard et al., Experientia; cited from earlier work
# [7] = likelihood suggested by Wingard et al., 1980; cited from earlier work; remark: listed apart in the source
# [8] = Stability test: anaerobic incubation with fresh rat cecal contents, 37° C.; type: in vitro ADME
# Description: An important property of these stevioside analogs is their stability and resistance to conversion to steviol at the conditions of the mammalian gastrointestinal tract. […] At these conditions, no degradation to steviol occurs to a limit of detection of 0.13%.
# Steviolbioside, 3-sulfopropyl ester, potassium salt prepared in Part B. was incubated anaerobically for three days at 37° C. with 5 wt% fresh rat cecal contents, at concentrations of 0.25, 0.5, and 1.0 mg/ml in sterile Krebs-Ringer 0.25M phosphate buffer (pH 7.4) containing 0.25 mg/ml dithiothreitol and 0.25 mg/ml α-D-glucose. […] No steviol (Rf =0.95; tR =31.3 min) was detected. After 3 days the bacterial cells were sedimented by centrifugation. The sediment was extracted (THF), as was the supernatant, after lyophilization. […] With a detection limit of […], as little as 0.03 and 0.13 percent degradation to steviol could have been detected for the sediment and supernatant fractions, respectively.
# [9] = Use in comestibles (taste of sweetened beverages and gelatin); type: in vivo
# Description: Based on the results of Part D, one can employ the compound of Part B as a sweetener for comestibles. In exemplary uses 0.08% by weight of the compound is dissolved in an unsweetened cola beverage, a like concentration of the compound is added to an unsweetened lemonade and to coffee. […] In two other cases, 0.04% by weight is added to coffee along with 0.02% by weight of saccharin and 3% by weight of sucrose, respectively. […] B.
# Cups of coffee are prepared: To each is added 500 ppm by weight, basis solution, of one of each of the sweeteners prepared in Examples II-VIII. The coffees present a sweetened taste when sampled.
# Gelatin, food color and fruit flavor are dissolved in water at levels suitable for forming a jelled food product. The solution is not sweet. The materials of Claims II-VIII are each added to separate samples in amounts of 600 ppm and the samples are cast into jelled products. The resulting gelatin products are sweet.
# [10] = 1000 ppm by weight in distilled water
# [11] = compared with material of Example I
Compound,"Ip, sample intensity relative to 10% sucrose [3]","Pm, potency compared to sucrose = 1, molar basis [4]","Pw, potency compared to sucrose = 1, weight basis [4]","Taste Character, Bitter [4]","Taste Character, Other [4]","Taste Character, Salty [4]","Taste Character, Sour [4]","Taste Character, Sweet [4]","Taste Character, Sweet/bitter, other [4]",taste of the material [4],further results
C=C1C[C@@]23CC[C@H]4[C@@](C)(CCC[C@@]4(C)C(=O)O)[C@@H]2CC[C@]1(O)C3 [steviol],,,,,,,,,,,inhibition of ATP synthetase compared with atractyligenin (ATP synthetase): even more potent inhibitor of ATP synthetase; antiandrogenic effects [1]: antiandrogenic effects; absorption through the gastrointestinal tract wall [2]: completely absorbed
"O=C1NS(=O)(=O)c2ccccc21 [Saccharin, saccharin, reference compound]",0.98(0.09),180(20),300(30),12(8) %,3(2) %,0(0) %,0(0) %,85(6) %,85/15,,
C=C1C[C@@]23CC[C@H]4[C@@](C)(CCC[C@@]4(C)C(=O)OC(CCC(=O)O)C(=O)O)[C@@H]2CC[C@]1(O[C@@H]1O[C@H](CO)[C@@H](O)[C@H](O)[C@H]1O[C@@H]1O[C@H](CO)[C@@H](O)[C@H](O)[C@H]1O)C3 (some centres unmarked) [V],,,,,,,,,,sweet,
C=C1C[C@@]23CC[C@H]4[C@@](C)(CCC[C@@]4(C)C(=O)OCCC(S(=O)(=O)O)S(=O)(=O)O)[C@@H]2CC[C@]1(O[C@@H]1O[C@H](CO)[C@@H](O)[C@H](O)[C@H]1O[C@@H]1O[C@H](CO)[C@@H](O)[C@H](O)[C@H]1O)C3 [VIII],,,,,,,,,,,"taste of solution [3, 10]: exceedingly sweet; sweetness intensity equal to sucrose solution [4, 10]: 10-12 % sucrose"
"C=C1C[C@@]23CC[C@H]4[C@@](C)(CCC[C@@]4(C)C(=O)OCCCCS(=O)(=O)O)[C@@H]2CC[C@]1(O[C@@H]1O[C@H](CO)[C@@H](O)[C@H](O)[C@H]1O[C@@H]1O[C@H](CO)[C@@H](O)[C@H](O)[C@H]1O)C3 [III, steviolbioside, 4-sulfobutyl ester, sodium salt]",,,,,,,,,,"sweet, like the material of Example I",
"C=C1C[C@@]23CC[C@H]4[C@@](C)(CCC[C@@]4(C)C(=O)O[C@@H]4O[C@H](CO)[C@@H](O)[C@H](O)[C@H]4O)[C@@H]2CC[C@]1(O[C@@H]1O[C@H](CO)[C@@H](O)[C@H](O)[C@H]1O[C@@H]1O[C@H](CO)[C@@H](O)[C@H](O)[C@H]1O)C3 [Stevioside, stevioside]",0.94(0.06),440(30),190(10),30(10) %,8(5) %,0(0) %,0(0) %,62(10) %,62/38,,sweetness relative to sucrose [5]; 1931: about 300 times as sweet as sucrose; bitterness of taste [5]: substantial degree of bitterness; degradation to steviol [6]: essentially quantitative degradation to steviol; conversion to steviol in vivo [7]: largely converted to steviol in vivo
"C=C1C[C@@]23CC[C@H]4[C@@](C)(CCC[C@@]4(C)C(=O)OCCCS(=O)(=O)O)[C@@H]2CC[C@]1(O[C@@H]1O[C@H](CO)[C@@H](O)[C@H](O)[C@H]1O[C@@H]1O[C@H](CO)[C@@H](O)[C@H](O)[C@H]1O)C3 [Example I, Steviolbioside, 3-sulfopropyl ester, potassium salt]",0.84(0.06),360(20),160(10),4(6) %,4(4) %,0(0) %,0(0) %,92(6) %,92/8,,"time within which all the initial ester was consumed ([8]; 5 wt% fresh rat cecal contents, 0.25, 0.5 and 1.0 mg/ml, pH 7.4, 37° C., anaerobic, TLC and HPLC): ≤ 24 h; steviol in THF extracts (HPLC) ([8]; after 3 days, sediment and supernatant extracts): none to be detectable; steviol detected (TLC and HPLC of incubation) ([8]; rat cecal contents, 37° C.): No steviol; degradation product formed ([8]; rat cecal contents, within 24 h, TLC and HPLC): apparently only the sulfopropyl ester of steviol; sweetness in comestibles, with co-sweetener ([9]; 0.04% by weight in coffee with 0.02% saccharin or 3% sucrose): sweetness is imparted; sweetness in comestibles ([9]; 0.08% by weight in unsweetened cola, unsweetened lemonade and coffee): sweetness is imparted; taste quality ([4]; 0.0534 wt%): very sucrose-like, having negligible off-flavors; sweetness equivalent ([4]; 0.0534 wt% in distilled water): 8-9 wt% sucrose; taste of solution ([4]; 0.2 wt% in distilled water): very intense sweet taste; taste compared with saccharin and stevioside ([4]; Table II): superior to the tastes of saccharin and stevioside itself"
"C=C1C[C@@]23CC[C@H]4[C@@](C)(CCC[C@@]4(C)C(=O)OCC(=O)O)[C@@H]2CC[C@]1(O[C@@H]1O[C@H](CO)[C@@H](O)[C@H](O)[C@H]1O[C@@H]1O[C@H](CO)[C@@H](O)[C@H](O)[C@H]1O)C3 [VII, steviolbioside, carboxymethyl ester, sodium salt]",,,,,,,,,,sweet,
C=C1C[C@@]23CC[C@H]4[C@@](C)(CCC[C@@]4(C)C(=O)OCCC(N)C(=O)O)[C@@H]2CC[C@]1(O[C@@H]1O[C@H](CO)[C@@H](O)[C@H](O)[C@H]1O[C@@H]1O[C@H](CO)[C@@H](O)[C@H](O)[C@H]1O)C3 (some centres unmarked) [VI],,,,,,,,,,sweet and sucrose like,
"C=C1C[C@@]23CC[C@H]4[C@@](C)(CCC[C@@]4(C)C(=O)OCCCS(=O)(=O)O)[C@@H]2CC[C@]1(O[C@@H]1O[C@H](CO)[C@@H](O)[C@H](O)[C@H]1O[C@@H]1O[C@H](CO)[C@@H](O)[C@H](O)[C@H]1O)C3 [II, steviolbioside, 3-sulfopropyl ester, sodium salt]",,,,,,,,,,,"stability properties evaluated as in Part C of Example I [8, 11]: same advantageous properties; use in comestibles evaluated as in Part E of Example I [9, 11]: same advantageous properties; taste properties evaluated as in Part D of Example I [4, 11]: same advantageous properties"
